Results from paper PMC8870237, “Improved Multimodal Tumor Necrosis Imaging with IRDye800CW-DOTA Conjugated to an Albumin-Binding Domain” (Cancers, 2022).

What was measured:
EMT6-Luc2 tumors = test: Tumor uptake in EMT6-Luc2 tumor-bearing mice; assay type: in vivo, mouse; conditions: untreated, 24 h p.i., ±SEM
Description: The quadruple modality imaging procedure is illustrated in Figure S21. The tumor-bearing mice were injected with [^111In]3 (20 MBq, 2 nmol) in 200 µL PBS into the tail vein. The following day, the mice fasted for four hours before they were injected with [^18F]FDG (10 MBq, 200 µL) in PBS. At 24 h p.i. of [^111In]3 and 1 h p.i. of [^18F]FDG, FLI imaging was performed with a 730 nm excitation and 760 nm emission filter for 400 ms with 4 × 4 binning. Then, the mice received an intraperitoneal injection of D-luciferin (150 mg/kg) maintaining the position of the mice in the bed unaltered. During the onset of the bioluminescence signal, PET/SPECT imaging was performed of the tumors with a 2 cm axial field of view over a total scan time of 30 min, followed by a 2 min full-body CT. Finally, BLI imaging was performed with an open filter for 400 ms with 4 × 4 binning. Imaging was performed under isoflurane anesthesia whilst maintaining the body temperature constant. […]
After the final imaging experiments, the mice were sacrificed by cervical dislocation, tumors and organs were collected, weighted, and activity was accurately quantified by γ-counting to determine radioactivity uptake in the percentage of injected dose per gram (%ID/g). […] The sections were stored at −20 °C for the radioactivity to decay, before 800 nm fluorescence imaging and histochemical dead cell staining.

4T1-Luc2 tumors = test: SPECT/CT tumor necrosis imaging, quantified tumor uptake; assay type: in vivo, mouse; conditions: 4T1-Luc2 tumor-bearing mice, 24 h p.i.
Description: The 4T1-Luc2 cells (1.0 × 10^5) suspended in 15 µL PBS were inoculated bilaterally in 16 mice in four groups of four animals each. Nine days later, the tumor-bearing mice were injected with [^111In]3 (20 MBq, 2 nmol, in 200 µL PBS) into the tail vein, after which imaging was performed at timepoints 6, 24, 48, and 72 h post-injection (p.i.) under isoflurane anesthesia (4% induction, 1.5 to 2% maintenance in 100% O2), whilst maintaining the body temperature constant. First, FLI imaging was performed with a 730 nm excitation and 760 nm emission filter for 400 ms with 4 × 4 binning. Then, the mice received an intraperitoneal injection of D-luciferin (150 mg/kg) maintaining the position of the mice in the bed unaltered, and BLI imaging was performed with an open filter for 400 ms with 4 × 4 binning. Full body (head to tail base) SPECT images of the 5 cm axial field of view were obtained over a total scan time of 30 min, followed by a 2 min full-body CT. After imaging, the mice were euthanized for ex vivo analysis.
Acquired SPECT and PET images were reconstructed using SR-OSEM with 9 iterations and 128 subsets on a 36 × 36 × 35 mm matrix with 0.80 mm isotropic voxels. For the PET images, a decay correction of 109.7 min was applied. The PET and SPECT images were superposed with CT. The images were further analyzed in Pi-Mod. […]

4T1-Luc2 cells = test: In vitro dead/alive cell binding assay (fluorescence and γ-counting); assay type: cell-based, mouse; conditions: indium-111 labeled, 100 nM, 2.5 MBq/nmol, EtOH-killed or alive 4T1-Luc2 cells, γ-counting
Description: The 4T1-Luc2 cells were cultured in RPMI-1640 medium containing 10% fetal bovine, penicillin (100 U/mL), and streptomycin ([…]) 37 °C under a humidified atmosphere with 5% CO2. The cells were seeded in 24 well plates (1 × 10^5 cells per well). The next day, the cells were killed with EtOH (70%, 50 μL) or kept alive and incubated for 30 min at 37 °C with 100 nM of the NACAs in culturing medium. The plate was then imaged on an Odyssey (Li-Cor, 800 nm laser intensity 5.0).
Similarly, these killed and alive cells were incubated with the indium-111 labeled NACAs (100 nM, 2.5 MBq/nmol) in culturing medium. The cells were washed with PBS and collected with NaOH (1.0 M) for γ-counting. These experiments were performed as triplicates.

MCF7-Luc2 tumors = test: Tumor uptake in doxorubicin- or saline-treated MCF7-Luc2 tumor-bearing mice; assay type: in vivo, mouse; conditions: 24 h p.i., ±SEM
Description: The quadruple modality imaging procedure is illustrated in Figure S21. The tumor-bearing mice were injected with [^111In]3 (20 MBq, 2 nmol) in 200 µL PBS into the tail vein. The following day, the mice fasted for four hours before they were injected with [^18F]FDG (10 MBq, 200 µL) in PBS. At 24 h p.i. of [^111In]3 and 1 h p.i. of [^18F]FDG, FLI imaging was performed with a 730 nm excitation and 760 nm emission filter for 400 ms with 4 × 4 binning. Then, the mice received an intraperitoneal injection of D-luciferin (150 mg/kg) maintaining the position of the mice in the bed unaltered. During the onset of the bioluminescence signal, PET/SPECT imaging was performed of the tumors with a 2 cm axial field of view over a total scan time of 30 min, followed by a 2 min full-body CT. Finally, BLI imaging was performed with an open filter for 400 ms with 4 × 4 binning. Imaging was performed under isoflurane anesthesia whilst maintaining the body temperature constant.
Six mice were inoculated bilaterally with MCF7-Luc2 cells (3.0 × 10^6), suspended in 30 µL PBS:Matrigel (1:1; v/v). On days 14, 16, and 18 after inoculation, the tumor-bearing mice received either doxorubicin (5 mg/kg, Janssen Pharmaceuticals, Beerse, Belgium) or a saline solution via i.v. injection. On days 21 and 22 after inoculation, the mice underwent the FLI, BLI, and PET/SPECT/CT imaging procedure (vide supra).
After the final imaging experiments, the mice were sacrificed by cervical dislocation, tumors and organs were collected, weighted, and activity was accurately quantified by γ-counting to determine radioactivity uptake in the percentage of injected dose per gram (%ID/g). After γ-counting, the tumors were frozen in liquid nitrogen and stored at −80 °C overnight. Adjacent cryosections (10 µm) were prepared of the tumor centers for autoradiography. The sections were stored at −20 °C for the radioactivity to decay, before 800 nm fluorescence imaging and histochemical dead cell staining.

SMILES: CC1(C)C(=CC=C2CCCC(C=CC3=[N+](CCCCCC(=O)NCCCC[C@H](NC(=O)CCCc4ccc(I)cc4)C(=O)NCc4ccc(CNC(=O)CN5CCN(CC(=O)[O-])CCN(CC(=O)[O-])CCN(CC(=O)[O-])CC5)cc4)c4ccc(S(=O)(=O)O)cc4C3(C)C)=C2Oc2ccc(S(=O)(=O)O)cc2)N(CCCCS(=O)(=O)O)c2ccc(S(=O)(=O)O)cc21.[111In+3] [[^111In]3]
- tumor uptake of [111In]3 (EMT6-Luc2 tumors): 2.81 ± 0.21 %ID/g
- radioactive tumor uptake in the SPECT images (4T1-Luc2 tumors): 3.83 ± 0.19 %ID/mL
- dead/alive cell binding, radioactivity (4T1-Luc2 cells): increased as compared to [^111In]1
- tumor uptake of [111In]3 (MCF7-Luc2 tumors; after doxorubicin treatment (5 mg/kg i.v., 3 injections)): 2.25 ± 0.16 %ID/g
- tumor uptake of [111In]3 (MCF7-Luc2 tumors; after saline treatment (control)): 1.74 ± 0.08 %ID/g
